Key:
Assay type in all cases: biochemical
JAK3 = target: T1, JAK3 (Homo sapiens, UniProt P52333); test: Inhibition of a panel of kinases, in vitro HotSpot kinase assay: JAK3
T1 sequence (P52333 1-1124): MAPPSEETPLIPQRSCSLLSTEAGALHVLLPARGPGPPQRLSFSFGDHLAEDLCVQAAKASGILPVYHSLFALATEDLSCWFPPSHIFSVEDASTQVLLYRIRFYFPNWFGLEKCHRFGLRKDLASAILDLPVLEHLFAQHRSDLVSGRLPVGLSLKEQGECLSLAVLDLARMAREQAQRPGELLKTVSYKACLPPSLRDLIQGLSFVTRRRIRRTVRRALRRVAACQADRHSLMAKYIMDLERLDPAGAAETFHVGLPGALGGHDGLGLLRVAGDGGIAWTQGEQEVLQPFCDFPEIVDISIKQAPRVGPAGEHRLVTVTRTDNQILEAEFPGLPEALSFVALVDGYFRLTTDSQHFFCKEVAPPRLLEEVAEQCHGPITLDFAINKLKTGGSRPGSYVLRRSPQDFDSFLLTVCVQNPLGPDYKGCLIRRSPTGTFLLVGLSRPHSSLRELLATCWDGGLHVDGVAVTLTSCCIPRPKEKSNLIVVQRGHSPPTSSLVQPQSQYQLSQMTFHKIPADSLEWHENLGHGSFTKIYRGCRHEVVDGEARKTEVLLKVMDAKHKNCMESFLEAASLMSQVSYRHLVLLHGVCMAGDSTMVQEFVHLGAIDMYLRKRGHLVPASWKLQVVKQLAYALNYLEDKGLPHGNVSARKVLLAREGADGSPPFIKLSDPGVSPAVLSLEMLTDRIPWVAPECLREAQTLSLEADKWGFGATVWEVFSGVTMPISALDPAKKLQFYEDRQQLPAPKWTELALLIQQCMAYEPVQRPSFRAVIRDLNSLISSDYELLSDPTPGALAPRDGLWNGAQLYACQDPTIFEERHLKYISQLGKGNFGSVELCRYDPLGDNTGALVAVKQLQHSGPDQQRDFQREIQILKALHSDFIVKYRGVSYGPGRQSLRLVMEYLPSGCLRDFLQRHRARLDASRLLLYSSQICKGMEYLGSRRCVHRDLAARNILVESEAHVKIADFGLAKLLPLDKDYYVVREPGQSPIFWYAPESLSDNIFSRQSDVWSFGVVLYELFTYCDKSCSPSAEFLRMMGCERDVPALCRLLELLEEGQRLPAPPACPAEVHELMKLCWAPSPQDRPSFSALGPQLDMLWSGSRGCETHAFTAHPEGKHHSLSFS
Method: (§1) The degree of inhibition of a panel of kinases is determined using the in vitro HotSpot kinase assay (purified enzymes, ^33P-ATP, an appropriate substrate and 1 uM ATP).

Lck = Lck (Homo sapiens, UniProt P06239); test: Lck kinase activity, TR-FRET assay; settings: read-out: LCK (IC50)
Chain of Lck (P06239 whole entry, species assumed): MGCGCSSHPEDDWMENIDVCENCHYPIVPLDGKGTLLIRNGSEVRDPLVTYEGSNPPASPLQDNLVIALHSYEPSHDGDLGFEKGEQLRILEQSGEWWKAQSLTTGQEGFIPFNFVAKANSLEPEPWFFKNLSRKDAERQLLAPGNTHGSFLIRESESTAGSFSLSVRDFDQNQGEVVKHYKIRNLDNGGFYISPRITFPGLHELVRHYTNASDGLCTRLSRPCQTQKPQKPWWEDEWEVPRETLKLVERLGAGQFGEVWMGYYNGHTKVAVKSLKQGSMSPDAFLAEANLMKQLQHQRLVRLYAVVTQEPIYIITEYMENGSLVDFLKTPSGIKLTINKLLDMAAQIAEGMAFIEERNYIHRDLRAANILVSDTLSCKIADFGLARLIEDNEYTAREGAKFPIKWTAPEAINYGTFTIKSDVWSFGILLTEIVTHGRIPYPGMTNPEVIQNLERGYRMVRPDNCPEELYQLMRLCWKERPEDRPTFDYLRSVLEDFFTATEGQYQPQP
Outline: (§2)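 Enzyme (Btk 0.5 nM; Lck 6 nM) reacted 1 h with inhibitor, ATP at Km and biotin-peptide substrate in pH 7.4 buffer, 10% DMSO. Phosphopeptide detected by Eu-p-Tyr100 antibody plus streptavidin-APC (665/615 nm). IC50 calculated from fitted Ki(app) via ATP/Km correction plus half total enzyme.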

Btk = Btk (Homo sapiens, UniProt Q06187); test: Btk kinase activity, TR-FRET assay; settings: read-out: Btk (IC50)
Chain of Btk (Q06187 whole entry): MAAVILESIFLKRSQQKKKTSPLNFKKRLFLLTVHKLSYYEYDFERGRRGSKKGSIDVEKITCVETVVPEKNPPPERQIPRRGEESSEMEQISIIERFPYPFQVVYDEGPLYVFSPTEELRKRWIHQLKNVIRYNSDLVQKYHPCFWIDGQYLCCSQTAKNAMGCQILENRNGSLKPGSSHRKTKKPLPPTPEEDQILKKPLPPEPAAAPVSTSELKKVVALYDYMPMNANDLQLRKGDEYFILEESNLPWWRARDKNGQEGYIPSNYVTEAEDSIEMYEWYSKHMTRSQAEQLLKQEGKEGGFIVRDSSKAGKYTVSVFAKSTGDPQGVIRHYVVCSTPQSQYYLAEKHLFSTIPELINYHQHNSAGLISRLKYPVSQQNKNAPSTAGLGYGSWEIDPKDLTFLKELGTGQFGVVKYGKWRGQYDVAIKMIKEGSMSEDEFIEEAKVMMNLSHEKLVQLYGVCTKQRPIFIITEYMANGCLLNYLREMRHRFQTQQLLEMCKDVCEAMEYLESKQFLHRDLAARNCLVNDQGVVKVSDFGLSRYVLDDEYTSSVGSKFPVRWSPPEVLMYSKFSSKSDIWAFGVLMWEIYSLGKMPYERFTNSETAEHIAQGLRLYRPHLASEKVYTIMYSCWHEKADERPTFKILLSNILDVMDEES
Outline: as §2

EGFR = EGFR (Homo sapiens, UniProt P00533); test: Inhibition of a panel of kinases, in vitro HotSpot kinase assay: EGFR
Chain of EGFR (P00533 25-1210): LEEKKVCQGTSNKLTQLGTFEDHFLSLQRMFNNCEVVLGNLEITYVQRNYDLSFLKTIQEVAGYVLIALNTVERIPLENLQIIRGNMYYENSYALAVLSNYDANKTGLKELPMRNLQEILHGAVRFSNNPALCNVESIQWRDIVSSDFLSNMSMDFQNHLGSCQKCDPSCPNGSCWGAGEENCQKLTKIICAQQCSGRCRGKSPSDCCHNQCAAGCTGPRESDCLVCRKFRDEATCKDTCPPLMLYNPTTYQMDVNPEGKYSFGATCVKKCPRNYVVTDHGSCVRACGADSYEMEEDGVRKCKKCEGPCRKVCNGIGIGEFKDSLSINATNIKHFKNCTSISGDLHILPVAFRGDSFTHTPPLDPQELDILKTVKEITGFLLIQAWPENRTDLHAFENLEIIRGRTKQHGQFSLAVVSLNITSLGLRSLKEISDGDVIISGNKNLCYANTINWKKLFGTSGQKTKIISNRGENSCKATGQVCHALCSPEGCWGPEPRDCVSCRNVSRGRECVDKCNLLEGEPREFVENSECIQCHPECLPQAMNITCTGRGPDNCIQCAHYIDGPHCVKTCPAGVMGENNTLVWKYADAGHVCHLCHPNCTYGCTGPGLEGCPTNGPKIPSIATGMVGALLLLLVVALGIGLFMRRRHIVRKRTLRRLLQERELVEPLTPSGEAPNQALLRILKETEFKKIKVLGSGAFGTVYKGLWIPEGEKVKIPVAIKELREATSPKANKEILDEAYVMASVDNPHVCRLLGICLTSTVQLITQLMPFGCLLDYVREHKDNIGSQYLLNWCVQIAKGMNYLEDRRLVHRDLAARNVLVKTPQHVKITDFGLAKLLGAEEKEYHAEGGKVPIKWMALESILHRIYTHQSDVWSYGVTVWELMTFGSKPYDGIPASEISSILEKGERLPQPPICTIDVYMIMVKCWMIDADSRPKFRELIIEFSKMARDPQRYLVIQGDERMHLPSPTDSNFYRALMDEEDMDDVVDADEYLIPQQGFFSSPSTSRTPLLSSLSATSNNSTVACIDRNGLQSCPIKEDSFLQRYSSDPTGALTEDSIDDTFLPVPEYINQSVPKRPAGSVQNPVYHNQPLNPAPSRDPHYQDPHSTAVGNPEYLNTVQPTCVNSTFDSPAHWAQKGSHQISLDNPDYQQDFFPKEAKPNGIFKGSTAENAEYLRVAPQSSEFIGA
Method: as §1

| Compound | IC50 (JAK3) | IC50 (Lck) | IC50 (Btk) | IC50 (EGFR) |
| --- | --- | --- | --- | --- |
| CCC(=O)N1CC[C@@H](Nc2n[nH]c3nccc(Oc4ccc(C(=O)Nc5ncc(C)s5)cc4)c23)C1 [compound 72, N-(5-methyl-1,3-thiazol-2-yl)-4-[(3-{[(3R)-1-propanoylpyrrolidin-3-yl]amino}-1H-pyrazolo[3,4-b]pyridin-4-yl)oxy]benzamide] | 1000 to 10000 nM | – | – | – |
| CO[C@H]1CC[C@@H](Nc2n[nH]c3nccc(Oc4ccc(C(=O)Nc5cc(C#N)ccn5)cc4)c23)CC1 [compound 85, N-(4-cyanopyridin-2-yl)-4-[(3-{[(1S,4S)-4-methoxycyclohexyl]amino}-1H-pyrazolo[3,4-b]pyridin-4-yl)oxy]benzamide] | – | 100 to 1000 nM | < 100 nM | 100 to 1000 nM |
| Cc1ccnc(NC(=O)c2ccc(Oc3ccnc4[nH]nc(N[C@@H]5CCCN(C(=O)C6(C)COC6)C5)c34)cc2)c1 [compound 86, 4-[(3-{[(3R)-1-(3-methyloxetane-3-carbonyl)piperidin-3-yl]amino}-1H-pyrazolo[3,4-b]pyridin-4-yl)oxy]-N-(4-methylpyridin-2-yl)benzamide] | > 10000 nM | – | < 100 nM | – |
| Cc1ccnc(NC(=O)c2ccc(Oc3ccnc4[nH]nc(N[C@@H]5CCCN(C(=O)C6(C)CCOCC6)C5)c34)cc2)c1 [compound 87, 4-[(3-{[(3R)-1-(4-methyloxane-4-carbonyl)piperidin-3-yl]amino}-1H-pyrazolo[3,4-b]pyridin-4-yl)oxy]-N-(4-methylpyridin-2-yl)benzamide] | – | 1000 to 10000 nM | < 100 nM | > 10000 nM |
| Cc1ccnc(NC(=O)c2ccc(Oc3ccnc4[nH]nc(N[C@@H]5CCCN(C(=O)C6(C)CCC6)C5)c34)cc2)c1 [compound 88, 4-[(3-{[(3R)-1-(1-methylcyclobutanecarbonyl)piperidin-3-yl]amino}-1H-pyrazolo[3,4-b]pyridin-4-yl)oxy]-N-(4-methylpyridin-2-yl)benzamide] | – | 1000 to 10000 nM | < 100 nM | > 10000 nM |
| Cc1ccnc(NC(=O)c2ccc(Oc3ccnc4[nH]nc(N[C@@H]5CCCN(C(=O)C6(C)CCOC6)C5)c34)cc2)c1 (stereo partly drawn) [compound 89, 4-[(3-{[(3R)-1-(3-methyloxolane-3-carbonyl)piperidin-3-yl]amino}-1H-pyrazolo[3,4-b]pyridin-4-yl)oxy]-N-(4-methylpyridin-2-yl)benzamide] | – | 1000 to 10000 nM | < 100 nM | > 10000 nM |
| Cc1ccnc(NC(=O)c2ccc(Oc3ccnc4[nH]nc(N[C@@H]5CCCN(C(=O)C6COC6)C5)c34)cc2)c1 [compound 90, N-(4-methylpyridin-2-yl)-4-[(3-{[(3R)-1-(oxetan-3-carbonyl)piperidin-3-yl]amino}-1H-pyrazolo[3,4-b]pyridin-4-yl)oxy]benzamide] | – | 100 to 1000 nM | < 100 nM | 1000 to 10000 nM |
| Cc1ccnc(NC(=O)c2ccc(Oc3ccnc4[nH]nc(N[C@@H]5CCCN(C(=O)N6CCOCC6)C5)c34)cc2)c1 [compound 91, N-(4-methylpyridin-2-yl)-4-[(3-{[(3R)-1-(morpholine-4-carbonyl)piperidin-3-yl]amino}-1H-pyrazolo[3,4-b]pyridin-4-yl)oxy]benzamide] | – | 1000 to 10000 nM | < 100 nM | > 10000 nM |
| Cc1ccnc(NC(=O)c2ccc(Oc3ccnc4[nH]nc(N[C@@H]5CCCN(C(=O)C6CCN(C)CC6)C5)c34)cc2)c1 [compound 92, 4-[(3-{[(3R)-1-(1-methylpiperidine-4-carbonyl)piperidin-3-yl]amino}-1H-pyrazolo[3,4-b]pyridin-4-yl)oxy]-N-(4-methylpyridin-2-yl)benzamide] | – | 100 to 1000 nM | < 100 nM | 1000 to 10000 nM |
| Cc1cc(NC(=O)c2cccc(Nc3ccnc4[nH]nc(N[C@@H]5CCCN(C(=O)C6CC6)C5)c34)c2)ccc1C(C)C [compound 127, 3-[(3-{[(3R)-1-cyclopropanecarbonylpiperidin-3-yl]amino}-1H-pyrazolo[3,4-b]pyridin-4-yl)amino]-N-[3-methyl-4-(propan-2-yl)phenyl]benzamide] | > 10000 nM | 1000 to 10000 nM | 100 to 1000 nM | – |
| C=CC(=O)N1CCC[C@@H](Nc2n[nH]c3nccc(Nc4cccc(C(=O)Nc5ccc(C(C)C)c(C)c5)c4)c23)C1 [compound 129, N-[3-methyl-4-(propan-2-yl)phenyl]-3-[(3-{[(3R)-1-(prop-2-enoyl)piperidin-3-yl]amino}-1H-pyrazolo[3,4-b]pyridin-4-yl)amino]benzamide] | < 100 nM | 1000 to 10000 nM | < 100 nM | – |
| Cc1cc(NC(=O)c2cccc(Nc3ccnc4[nH]nc(N[C@@H]5CCCN(C(=O)c6ccc(F)cc6)C5)c34)c2)ccc1C(C)C [compound 130, 3-[(3-{[(3R)-1-(4-fluorobenzoyl)piperidin-3-yl]amino}-1H-pyrazolo[3,4-b]pyridin-4-yl)amino]-N-[3-methyl-4-(propan-2-yl)phenyl]benzamide] | > 10000 nM | > 10000 nM | 100 to 1000 nM | – |
| CC(=O)N1CCC[C@@H](Nc2n[nH]c3nccc(Nc4cccc(C(=O)Nc5ccc(C(C)C)c(C)c5)c4)c23)C1 [compound 131, 3-[(3-{[(3R)-1-acetylpiperidin-3-yl]amino}-1H-pyrazolo[3,4-b]pyridin-4-yl)amino]-N-[3-methyl-4-(propan-2-yl)phenyl]benzamide] | > 10000 nM | 1000 to 10000 nM | 100 to 1000 nM | – |
| CCNC(=O)N1CCC[C@@H](Nc2n[nH]c3nccc(Oc4ccc(-c5nc6cccc(C)c6o5)cc4)c23)C1 [compound 182] | – | > 10000 nM | 100 to 1000 nM | > 10000 nM |
| Cc1cccc2nc(-c3ccc(Oc4ccnc5[nH]nc(N[C@@H]6CCCN(C(=O)C7CCN(C)CC7)C6)c45)cc3)oc12 [compound 184] | – | > 10000 nM | 1000 to 10000 nM | > 10000 nM |
| CCNC(=O)N1CCCC(c2n[nH]c3nccc(Oc4ccc(C(=O)Nc5cc(C(F)(F)F)ccn5)cc4)c23)C1 (stereo not drawn) [compound 186] | – | 100 to 1000 nM | 100 to 1000 nM | 1000 to 10000 nM |
| CCNC(=O)N1CC[C@@H](Nc2n[nH]c3nccc(Oc4ccc(C(=O)Nc5ncc(C)s5)cc4)c23)C1 [compound 189] | – | 1000 to 10000 nM | < 100 nM | > 10000 nM |
| CCC(=O)N1CC[C@@H](Nc2n[nH]c3nccc(Oc4ccc(C(=O)Nc5ncc(C)s5)cc4)c23)C1 [compound 190] | – | 1000 to 10000 nM | < 100 nM | 1000 to 10000 nM |
| Cc1cnc(NC(=O)c2ccc(Oc3ccnc4[nH]nc(C5CCCN(C(=O)C6CC6)C5)c34)cc2)s1 (stereo not drawn) [compound 193] | – | > 10000 nM | 100 to 1000 nM | 1000 to 10000 nM |
| CCNC(=O)N1CCCC(c2n[nH]c3nccc(Oc4ccc(C(=O)Nc5ncc(C)s5)cc4)c23)C1 (stereo not drawn) [compound 195, N-ethyl-3-(4-{4-[(5-methyl-1,3-thiazol-2-yl)carbamoyl]phenoxy}-1H-pyrazolo[3,4-b]pyridin-3-yl)piperidine-1-carboxamide] | – | 1000 to 10000 nM | 100 to 1000 nM | 1000 to 10000 nM |
| CN1CCC(C(=O)N2CCC[C@@H](Nc3n[nH]c4nccc(Oc5ccc(-c6nc7ccccc7s6)cc5)c34)C2)CC1 [compound 197, (3R)-N-{4-[4-(1,3-benzothiazol-2-yl)phenoxy]-1H-pyrazolo[3,4-b]pyridin-3-yl}-1-(1-methylpiperidine-4-carbonyl)piperidin-3-amine] | – | 100 to 1000 nM | 100 to 1000 nM | > 10000 nM |
| Cc1ccnc(NC(=O)c2ccc(Oc3ccnc4[nH]nc(N[C@@H]5CCCN(C(=O)c6ncco6)C5)c34)cc2)c1 [compound 240, (R)—N-(4-methylpyridin-2-yl)-4-(3-(1-(oxazole-2-carbonyl)piperidin-3-ylamino)-1H-pyrazolo[3,4-b]pyridin-4-yloxy)benzamide] | > 10000 nM | 100 to 1000 nM | < 100 nM | – |

From patent US9580416B2, “Inhibitors of Bruton's tyrosine kinase” (PHARMACYCLICS LLC, priority 2014, dated 2017)
